In PMC2263054, “Functional evolution of the vitamin D and pregnane X receptors” (BMC Evolutionary Biology, 2007):

Experiments:
[1] = system: testosterone 6β-hydroxylation activity (CYP3A-like activity); test: testosterone hydroxylation (HPLC) in zebrafish primary hepatocytes
Protocol: (§1) The cells are cultured at 26°C in ambient atmosphere.
100 μL of sample, calibration standard, or quality material standard were pipetted into separate microcentrifuge tubes and mixed with 100 μL of methanol. Samples were vortexed and centrifuged at 13,000 rpm for 4 min. The supernatant was then injected into the HPLC.
The flow rate was 1.2 mL/min and total run time was 25 min.

[2] = system: MDR1 (tentatively classified as ABCB5 in zebrafish); test: zebrafish in vivo liver transcription, semi-quantitative RT-PCR: MDR1
Protocol: Adult zebrafish were purchased from a commercial fish supplier and acclimatized for at least two-weeks in 20 L tanks with flow-through freshwater at 22°C. A single dose of 15 mg/kg of 5α-cyprinol, 5β-cyprinol 27-sulfate, 5α-scymnol or 5β-scymnol-27 sulfate, dissolved in saline, was injected intraperitoneally. A control group was injected with saline. After 48 hr, the animals were decapitated and livers of three fish (n = 5 each group) were removed, pooled and weighed, totalizing 15 fish per group. Fish were not fed throughout the experimental period. […].
(§2) To study the transcription of CYP3C1, ABCB5, PXR, GAPDH and β-actin genes in zebrafish, initial fragments of these genes were identified (Genbank: AW202769, Genbank: BQ284593, Genbank: AAM22215, Genbank: BC083506, Genbank: AF057040, respectively). The PCR primers for CYP3C1 were designed using MacVector Software and primers for MDR1 were designed using Primer 3 Software (Whitehead Institute for Biomedical Research; [75]). Primer pairs for amplifying CYP3C1 fragment were 5'-[…]-3' (sense) and 5'-[…]-3' (antisense) and for amplifying ABCB5 were 5'-[…]-3' (sense) and 5'-[…]-3' (antisense). The PCR primers for PXR were 5'-[…]-3' (sense) and 5'-[…]-3' (antisense), for amplifying GAPDH were 5'-[…]-3' (sense) and 5' […] 3' (antisense) and for β-actin were 5'-[…]-3' (sense) and 5'-[…]-3' (antisense). RNA was isolated using Trizol (Invitrogen) according to manufacturer's instructions. Purity and concentration of RNA of each sample were verified at 260 nm. The RNA integrity was checked by non-denaturing gel electrophoresis using 1 μg of total RNA in each sample.
Two micrograms of total RNA were reversed transcribed using Ominiscript RT Kit (Qiagen, Valencia, CA, USA). cDNA concentration was checked at 260 nm, and the amount adjusted to 1 μg to perform semi-quantitative RT-PCR. The expected size of the PXR, Cyp3C1, abcb5, GAPDH and β-actin fragments were 577, 477, 218, 234 and 550 bp, respectively. Biotools DNA polymerase (Biotools B&M Labs, S.A., Madrid, Spain) kit was used for the PCR reaction using a thermocycler Personal Mastercycler (Eppendörf) with the following PCR program: 5 cycles of 94°C for 5 s, 72°C for 35 s; 5 cycles of 94°C for 5 s, 70°C for 10 s, 72°C for 35 s; and 23, 24, 35, 15 and 24 cycles (PXR, Cyp3C1, abcb5, GAPDH and β-actin, respectively) of 94°C for 5 s, 61, 54, 48, 49 and 61°C for 10 s (PXR, Cyp3C1, abcb5, GAPDH and β-actin, respectively), and 72°C for 35 s. The PXR, CYP3C1, ABCB5 and GAPDH transcript levels were quantified using Gel-Quant™ (Multiplexed Biotechologies) and β-actin was used to normalize the data. The Shapiro-Wilk W test was used to evaluate normality. When data were parametric the analysis was performed using Student t test; otherwise Mann Whitney U test was applied. […]

[3] = system: zebrafish PXR; details: luciferase reporter in HepG2 cells, normalized to 20 μM androstanol
[4] = system: glyceraldehyde 3-phosphate dehydrogenase (GAPDH); test: zebrafish in vivo liver transcription, semi-quantitative RT-PCR: GAPDH; details: 15 mg/kg intraperitoneally, single dose, 48 hr
Protocol: Adult zebrafish were purchased from a commercial fish supplier and acclimatized for at least two-weeks in 20 L tanks with flow-through freshwater at 22°C. A single dose of 15 mg/kg of 5α-cyprinol, 5β-cyprinol 27-sulfate, 5α-scymnol or 5β-scymnol-27 sulfate, dissolved in saline, was injected intraperitoneally. A control group was injected with saline. After 48 hr, the animals were decapitated and livers of three fish (n = 5 each group) were removed, pooled and weighed, totalizing 15 fish per group. Fish were not fed throughout the experimental period.
as §2, with “The PCR primers for CYP3C1 were designed using MacVector Software and primers for MDR1 were designed using Primer 3 Software (Whitehead Institute for Biomedical Research; [75]).” left out, “Purity and concentration of RNA of each sample were verified at 260 nm.” left out
The PXR, CYP3C1, ABCB5 and GAPDH transcript levels were quantified using Gel-Quant™ (Multiplexed Biotechologies) and β-actin was used to normalize the data. The Shapiro-Wilk W test was used to evaluate normality. When data were parametric the analysis was performed using Student t test; otherwise Mann Whitney U test was applied.

[5] = system: ethoxyresorufin O-deethylase (EROD) activity (CYP1A-like activity); test: EROD assay in zebrafish primary hepatocytes; details: zebrafish primary hepatocytes; DIM at concentrations of 2 μM and greater
Protocol: as §1

SMILES	increase in 6β-hydroxylation activity compared to vehicle-treated control [1]	liver transcription of MDR1 (ABCB5) ([2]; zebrafish, 15 mg/kg intraperitoneally, single dose, 48 hr)	activation of recombinant zebrafish PXR [3]	liver transcription of GAPDH [4]	effect on EROD activity [5]	liver transcription of MDR1 (ABCB5) ([2]; ip, 15 mg/kg, 48 h)
C[C@H](CCCC(CO)COS(=O)(=O)O)[C@H]1CC[C@H]2[C@@H]3[C@H](O)C[C@H]4C[C@H](O)CC[C@]4(C)[C@H]3C[C@H](O)[C@]12C (stereo partly drawn) [5α-Cyprinol 27-sulfate]	15–20%	2.29 ± 0.75 arbitrary units normalized to β-actin	all activate recombinant zebrafish PXR	2.38 ± 0.79 arbitrary units normalized to β-actin	found not to affect EROD activity	–
C[C@H](CCCC(CO)CO)[C@H]1CC[C@H]2[C@@H]3[C@H](O)C[C@H]4C[C@H](O)CC[C@]4(C)[C@H]3C[C@H](O)[C@]12C [5α-Cyprinol, 5α-cholestan-3α,7α,12α,26,27-pentol]	–	–	–	1.50 ± 0.88 arbitrary units normalized to β-actin	–	2.00 ± 1.00 arbitrary units normalized to β-actin
